Where only a bound is given, the exact number is not on record here.

For one test, the system named is HCV 1b genotype. The experiment in a line: HCV Replicon assay (HCV-neo replicon cells, wild-type). It counts as cell-based. To be noted: HCV 1b genotype replicon; range class A-D; read-out: 1b EC50 (in μM or range).
With `O=C1CN(C(C(=O)N2CCC[C@H]2C(=O)Nc2ccc(C#Cc3ccc(NC(=O)[C@@H]4CCCN4C(=O)C(c4ccccc4)N4CCNC(=O)C4)cc3)cc2)c2ccccc2)CCN1` (single isomer, unassigned) [VN33.5], the EC50 lay in the range of 100 to 999 nM.

For `O=C1CN(C(C(=O)N2CCC[C@H]2C(=O)Nc2ccc(C#Cc3ccc(NC(=O)[C@@H]4CCCN4C(=O)C(c4ccccc4)N4CCNC(=O)C4)cc3)cc2)c2ccccc2)CCN1` (single isomer, unassigned) [VN33], the EC50 is below 4.57 nM.

As to `CC(C)OC(=O)N[C@@H](C(=O)N1CCC[C@H]1C(=O)Nc1ccc(C#Cc2ccc(NC(=O)[C@@H]3CCCN3C(=O)[C@H](NC(=O)OC(C)C)c3ccccc3)cc2)cc1)c1ccccc1` [VN57, Diisopropyl (1,2-ethynediylbis(4,1-phenylenecarbamoyl(2S)-2,1-pyrrolidinediyl((1R)-2-oxo-1-phenyl-2,1-ethanediyl)))biscarbamate], the EC50 was below 4.57 nM.

As for `CC(=O)N1CCN(C(C(=O)N2CCC[C@H]2C(=O)Nc2ccc(C#Cc3ccc(NC(=O)[C@@H]4CCCN4C(=O)C(c4ccccc4)N4CCN(C(C)=O)CC4)cc3)cc2)c2ccccc2)CC1` (stereo partly drawn) [VN49, (2S,2′S)-N,N′-(1,2-ethynediyldi-4,1-phenylene)bis(1-((4-acetyl-1-piperazinyl)(phenyl)acetyl)-2-pyrrolidinecarboxamide)], the EC50 is 4.57 to 99 nM.

`CN(C)C(C)(C(=O)N1CCC[C@H]1C(=O)Nc1ccc(C#Cc2ccc(NC(=O)[C@@H]3CCCN3C(=O)C(C)(c3ccccc3)N(C)C)cc2)cc1)c1ccccc1` (stereo partly drawn) [VN38, (2S,2′S)-N,N′-(1,2-ethynediyldi-4,1-phenylene)bis(1-(2-(dimethylamino)-2-phenylpropanoyl)-2-pyrrolidinecarboxamide)]: the EC50 is below 4.57 nM.

Staying with this test, now noted: Hepatitis C virus, HCV 1b genotype replicon; range class A-D; read-out: 1b EC50 (in μM or range).
Regarding `O=C(Nc1ccc(C#Cc2ccc(NC(=O)[C@@H]3CCCN3C(=O)Cc3ccccc3)cc2)cc1)[C@H]1CCCO1` [Example D17, 1-(Phenylacetyl)-N-(4-((4-(((2R)-tetrahydro-2-furanylcarbonyl)amino)phenyl)ethynyl)phenyl)-L-prolinamide], the EC50 was 100 to 999 nM.

Turning to `CC(=O)N(C)C(C(=O)N1CCC[C@H]1C(=O)Nc1ccc(C#Cc2ccc(NC(=O)[C@@H]3CCCN3C(=O)C(c3ccccc3)N(C)C(C)=O)cc2)cc1)c1ccccc1` (stereo partly drawn) [VN46, (2S,2′S)-N,N′-(1,2-ethynediyldi-4,1-phenylene)bis(1-((acetyl(methyl)amino)(phenyl)acetyl)-2-pyrrolidinecarboxamide)], the EC50 was in the range of 100 to 999 nM.

Turning to `O=C(Nc1ccc(C#Cc2ccc(NC(=O)[C@@H]3CCCN3C(=O)Cc3ccccc3)cc2)cc1)C1CC1` [Example D15, N-(4-((4-((cyclopropylcarbonyl)amino)phenyl)ethynyl)phenyl)-1-(phenylacetyl)-L-prolinamide], the EC50 was 100 to 999 nM.

Consider `O=C(CC1CC1)Nc1ccc(C#Cc2ccc(NC(=O)[C@@H]3CCCN3C(=O)Cc3ccccc3)cc2)cc1` [Example D16, N-(4-((4-((cyclopropylacetyl)amino)phenyl)ethynyl)phenyl)-1-(phenylacetyl)-L-prolinamide], for which the EC50 was in the range of 100 to 999 nM.

On to `O=C(Nc1ccc(C#Cc2ccc(NC(=O)[C@@H]3CCCN3C(=O)C3(c4ccccc4)CC3)cc2)cc1)[C@@H]1CCCN1C(=O)C1(c2ccccc2)CC1` [VN4, (2S,2′S)-N,N′-(1,2-ethynediyldi-4,1-phenylene)bis(1-((1-phenylcyclopropyl)carbonyl)-2-pyrrolidinecarboxamide)], for which the EC50 is below 4.57 nM.

For `O=C(Nc1ccc(C#Cc2ccc(NC(=O)[C@@H]3CCCN3C(=O)[C@H]3CCCO3)cc2)cc1)C1CCC1` [Example D24, N-(4-((4-((cyclobutylcarbonyl)amino)phenyl)ethynyl)phenyl)-1-((2R)-tetrahydro-2-furanylcarbonyl)-L-prolinamide], the EC50 fell in the range of 1000 to 10000 nM.

For the compound `CC(=O)N1CCC[C@H]1C(=O)Nc1ccc(C#Cc2ccc(NC(=O)C3CC(=O)N(Cc4ccc(Cl)cc4)C3)cc2)cc1` (stereo partly drawn) [Example D13, 1-Acetyl-N-(4-((4-(((1-(4-chlorobenzyl)-5-oxo-3-pyrrolidinyl)carbonyl)amino)phenyl)ethynyl)phenyl)-L-prolinamide], the EC50 was in the range of 1000 to 10000 nM.

For the compound `C[C@@H](C(=O)N1CCC[C@H]1C(=O)Nc1ccc(C#Cc2ccc(NC(=O)[C@@H]3CCCN3C(=O)[C@H](C)c3ccccc3)cc2)cc1)c1ccccc1` [VN9, (2S,2′S)-N,N′-(1,2-ethynediyldi-4,1-phenylene)bis(1-((2R)-2-phenylpropanoyl)-2-pyrrolidinecarboxamide)], the EC50 was below 4.57 nM.

For the compound `CN(C)[C@@H](C(=O)N1CCC[C@H]1C(=O)Nc1ccc(C#Cc2ccc(NC(=O)[C@@H]3CCCN3C(=O)[C@@H](c3ccc(F)cc3)N(C)C)cc2)cc1)c1ccc(F)cc1` [Example D36, (2S,2′S)-N,N′-(1,2-ethynediyldi-4,1-phenylene)bis(1-((2R)-2-(dimethylamino)-2-(4-fluorophenyl)acetyl)-2-pyrrolidinecarboxamide)], the EC50 is below 4.57 nM.

With `CN(C)C1(C(=O)N2CCC[C@H]2C(=O)Nc2ccc(C#Cc3ccc(NC(=O)[C@@H]4CCCN4C(=O)C4(N(C)C)Cc5ccccc5C4)cc3)cc2)Cc2ccccc2C1` [VN16, (2S,2′S)-N,N′-(1,2-ethynediyldi-4,1-phenylene)bis(1-((2-(dimethylamino)-2,3-dihydro-1H-inden-2-yl)carbonyl)-2-pyrrolidinecarboxamide)], the EC50 fell in the range of 4.57 to 99 nM.

Consider `O=C(Nc1ccc(C#Cc2ccc(NC(=O)[C@@H]3CCCN3C(=O)c3nccn3Cc3ccccc3)cc2)cc1)[C@@H]1CCCN1C(=O)c1nccn1Cc1ccccc1` [Example D29, (2S,2′S)-N,N′-(1,2-ethynediyldi-4,1-phenylene)bis(1-((1-benzyl-1H-imidazol-2-yl)carbonyl)-2-pyrrolidinecarboxamide)], for which the EC50 fell in the range of 100 to 999 nM.

Consider `CN(CC(N)=O)C(C(=O)N1CCC[C@H]1C(=O)Nc1ccc(C#Cc2ccc(NC(=O)[C@@H]3CCCN3C(=O)C(c3ccccc3)N(C)CC(N)=O)cc2)cc1)c1ccccc1` (stereo partly drawn) [VN45, (2S,2′S)-N,N′-(1,2-ethynediyldi-4,1-phenylene)bis(1-(((2-amino-2-oxoethyl)(methyl)amino)(phenyl)acetyl)-2-pyrrolidinecarboxamide)], for which the concentration for a half-maximal effect (EC50) was in the range of 4.57 to 99 nM.

Take `CC(=O)N1CCC[C@H]1C(=O)Nc1ccc(C#Cc2ccc(NC(=O)[C@@H]3CCCN3C(=O)Cc3ccccc3)nc2)cc1` [Example D55, (2S)-1-Acetyl-N-(4-((6-((((2S)-1-(phenylacetyl)-2-pyrrolidinyl)carbonyl)amino)-3-pyridinyl)ethynyl)phenyl)-2-pyrrolidinecarboxamide]: the EC50 was 100 to 999 nM.

Turning to `COc1cccc2c(C(=O)N3CCC[C@H]3C(=O)Nc3ccc(C#Cc4ccc(NC(=O)[C@@H]5CCCN5C(=O)c5nc(Cl)cc6c(OC)cccc56)cc4)cc3)nc(Cl)cc12` [Example D33, (2S,2′S)-N,N′-(1,2-ethynediyldi-4,1-phenylene)bis(1-((3-chloro-5-methoxy-1-isoquinolinyl)carbonyl)-2-pyrrolidinecarboxamide)], the EC50 was 4.57 to 99 nM.

Regarding `CCOc1cccc2c(C(=O)N3CCC[C@H]3C(=O)Nc3ccc(C#Cc4ccc(NC(=O)[C@@H]5CCCN5C(=O)c5nc(Cl)cc6c(OCC)cccc56)cc4)cc3)nc(Cl)cc12` [Example D34, (2S,2′S)-N,N′-(1,2-ethynediyldi-4,1-phenylene)bis(1-((3-chloro-5-ethoxy-1-isoquinolinyl)carbonyl)-2-pyrrolidinecarboxamide)], the EC50 is 4.57 to 99 nM.

The same test, now with this note: Hepatitis C virus, HCV 1b genotype replicon; read-out: 1b EC50 (in μM or range).
Consider `CC(=O)N1CCC[C@H]1C(=O)Nc1ccc(C#Cc2ccc(NC(=O)C3CC(=O)N(CCc4cccs4)C3)cc2)cc1` (stereo partly drawn) [Example D9, 1-Acetyl-N-(4-((4-(((5-oxo-1-(2-(2-thienyl)ethyl)-3-pyrrolidinyl)carbonyl)amino)phenyl)ethynyl)phenyl)-L-prolinamide], for which the EC50 worked out at 2420 nM.

`CC(=O)N1CCC[C@H]1C(=O)Nc1ccc(C#Cc2ccc(NC(=O)[C@@H]3CCCN3C(=O)c3nccc4ccccc34)nc2)cc1` [Example D56, (2S)-1-Acetyl-N-(4-((6-((((2S)-1-(1-isoquinolinylcarbonyl)-2-pyrrolidinyl)carbonyl)amino)-3-pyridinyl)ethynyl)phenyl)-2-pyrrolidinecarboxamide]: the EC50 was found to be 2090 nM.

Regarding `CN1CCN(C(C(=O)N2CCC[C@H]2C(=O)Nc2ccc(C#Cc3ccc(NC(=O)[C@@H]4CCCN4C(=O)C(c4ccccc4)N4CCN(C)CC4)cc3)cc2)c2ccccc2)CC1` (stereo partly drawn) [VN43, (2S,2′S)-N,N′-(1,2-ethynediyldi-4,1-phenylene)bis(1-((4-methyl-1-piperazinyl)(phenyl)acetyl)-2-pyrrolidinecarboxamide)], the EC50 worked out at 0.015 nM.

Take `O=C(Nc1cccc(C#Cc2cccc(NC(=O)[C@@H]3CCCN3C(=O)OCc3ccccc3)n2)n1)[C@@H]1CCCN1C(=O)OCc1ccccc1` [YQ1, dibenzyl (2S,2′S)-2,2′-(1,2-ethynediylbis(6,2-pyridinediylcarbamoyl))di(1-pyrrolidinecarboxylate)]: the EC50 stood at 7 nM.

Take `CCC(=O)N[C@@H](C(=O)N1CCC[C@H]1C(=O)Nc1ccc(C#Cc2ccc(NC(=O)[C@@H]3CCCN3C(=O)[C@H](NC(=O)CC)c3ccccc3)cc2)cc1)c1ccccc1` [VN24, (2S,2′S)-N,N′-(1,2-ethynediyldi-4,1-phenylene)bis(1-((2R)-2-phenyl-2-(propionylamino)acetyl)-2-pyrrolidinecarboxamide)]: the EC50 is above 10000 nM.

In the case of `CC(=O)N1CCC[C@H]1C(=O)Nc1ccc(C#Cc2ccc(NC(=O)[C@@H]3CCCN3C(=O)c3cccc4cccnc34)nc2)cc1` [Example D58, (2S)-1-Acetyl-N-(4-((6-((((2S)-1-(8-quinolinylcarbonyl)-2-pyrrolidinyl)carbonyl)amino)-3-pyridinyl)ethynyl)phenyl)-2-pyrrolidinecarboxamide], the EC50 is above 10000 nM.

Still in this test, the particulars now being: Hepatitis C virus, read-out: 1b EC50 (in μM or range), HCV 1b genotype replicon.
In the case of `O=C(Nc1cncc(C#Cc2cncc(NC(=O)[C@@H]3CCCN3C(=O)Cc3ccccc3)c2)c1)[C@@H]1CCCN1C(=O)Cc1ccccc1` [YQ2, (2S,2′S)-N,N′-(1,2-ethynediyldi-5,3-pyridinediyl)bis(1-(phenylacetyl)-2-pyrrolidinecarboxamide)], the EC50 is 523000 nM.

Source of the values: patent US8383094B2, “Hepatitis C virus inhibitors” (Bristol-Myers Squibb Company, priority 2008, dated 2013).
